These are literature values, as cited in patent US12171873B2, “Devices and methods for delivery of substances to animals” (Ruminant Biotech Corp Limited, priority 2020, dated 2024).

SMILES strings stand for the structures.

The conditions of series [1]: in vivo.
The conditions of series [2]: slaughtered steers, after 48 hour with holding period.

Consider `BrC(Br)Br` [Bromoform, bromoform], for which the level in milk entry in series [1] was “no significant increase”. In addition, the “residues in meat and tissue” value in series [2] is given as “no residues”.
